# Laboratory results from patent publication US20100324829A1, “METHOD OF SELECTING HLA-DP4 LIGANDS AND THE APPLICATIONS THEREOF” (priority 2001, published 2010).
# Where a chain is given by its changes, count along the chain named. pIC50: −log10 of the molar value. Like-named read-outs stand apart in the source and are kept apart here. Where a SMILES comes first, the peptide text is derived from it.
# Legend:
# Experiment in all cases: biochemical
# Format in all cases: binding
# [1] = biological target: T1, HLA-DP4 molecule DPA1*0103/DPB1*0401 (DP401) (Homo sapiens, UniProt P04440+P20036)
# T1 construct: purified from various human B lymphocyte lines transformed with the Epstein Barr virus (EBV), which are homozygotes for DP; endogenous in cells
# T1 sequence (P20036 29-260): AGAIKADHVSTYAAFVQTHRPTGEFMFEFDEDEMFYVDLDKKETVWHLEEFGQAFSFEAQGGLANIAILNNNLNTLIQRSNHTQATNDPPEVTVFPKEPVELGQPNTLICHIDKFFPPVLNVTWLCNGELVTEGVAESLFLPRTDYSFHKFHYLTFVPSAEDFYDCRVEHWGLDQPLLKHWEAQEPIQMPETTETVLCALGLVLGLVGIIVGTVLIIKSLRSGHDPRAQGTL
# T1 sequence (P04440 30-258): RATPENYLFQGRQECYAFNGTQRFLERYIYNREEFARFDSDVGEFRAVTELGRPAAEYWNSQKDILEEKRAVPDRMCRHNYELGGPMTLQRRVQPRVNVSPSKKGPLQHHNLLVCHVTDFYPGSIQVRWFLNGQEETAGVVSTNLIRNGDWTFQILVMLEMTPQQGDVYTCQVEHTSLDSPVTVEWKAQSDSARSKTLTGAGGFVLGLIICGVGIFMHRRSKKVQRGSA
# [2] = biological target: T2, HLA-DP4 molecule DPA1*0103/DPB1*0402 (DP402) (Homo sapiens, UniProt P04440+P20036, A65V/A84D/A85E/L207M)
# T2 construct: purified from various human B lymphocyte lines transformed with the Epstein Barr virus (EBV), which are homozygotes for DP; endogenous in cells
# T2 sequence (P20036 29-260): T1 sequence (P20036 29-260)
# T2 sequence (P04440 30-258 A65V/A84D/A85E): T1 sequence (P04440 30-258) with A36V, A55D, A56E
# [3] = biological target: T3, HLA-DP4 molecule DPA1*0103/DPB1*0402 (DP402) (Homo sapiens, UniProt P04440+P20036)
# T3 construct: purified from various human B lymphocyte lines transformed with the Epstein Barr virus (EBV), which are homozygotes for DP; endogenous in cells
# T3 sequence (P20036 29-260): T1 sequence (P20036 29-260)
# T3 sequence (P04440 30-258 A65V/A84D/A85E): T1 sequence (P04440 30-258) with A36V, A55D, A56E
# [4] = IC50 (nM) 401, Table XIII, binding to DPB1*0401, competition binding assay
# [5] = IC50 (nM) DP0401, Api m1 overlapping peptides, tracer bUNK 1-17 10 nM, pH 5, 24 h
# [6] = IC50 (nM) 402, Table XIII, binding to DPB1*0402, competition binding assay
# [7] = IC50 (nM) DP0402, Api m1 overlapping peptides, tracer bUNK 1-17 10 nM, pH 5, 24 h
Compound,Loss of binding to DP*0401 (ratio of the IC50 values for the mutant peptide and for the UNK1 peptide) [1],Loss of binding to DP*0402 (ratio of the IC50 values for the mutant peptide and for the UNK1 peptide) [3],also measured
CC[C@H](C)[C@H](NC(=O)[C@@H](N)Cc1c[nH]c2ccccc12)C(=O)N[C@H](C(=O)N[C@@H](CCC(N)=O)C(=O)N[C@@H](CS)C(=O)N[C@@H](Cc1ccccc1)C(=O)N[C@@H](CC(C)C)C(=O)N1CCC[C@H]1C(=O)N[C@H](C(=O)O)C(C)C)[C@@H](C)O (H-WITQCFLPV-OH; N-terminus and C-terminus assumed),–,–,pIC50 ([1]; calculated activity (using the DP*0401-binding assay)): 7.70; pIC50 ([2]; calculated activity (using the DP*0402-binding assay)): 7.17
CC[C@H](C)[C@H](NC(=O)[C@@H](NC(=O)[C@H](CC(=O)O)NC(=O)[C@H](C)NC(=O)[C@H](CO)NC(=O)[C@H](CC(N)=O)NC(=O)[C@H](CCCCN)NC(=O)[C@H](CC(C)C)NC(=O)[C@H](CS)NC(=O)[C@@H](N)CC(=O)O)[C@@H](C)O)C(=O)N[C@@H](CO)C(=O)N[C@@H](CO)C(=O)N[C@@H](Cc1ccc(O)cc1)C(=O)N[C@@H](Cc1ccccc1)C(=O)N[C@H](C(=O)NCC(=O)N[C@@H](CCCCN)C(=O)N[C@@H](CCSC)C(=O)O)C(C)C [69-86],–,–,"IC50 [1, 4]: > 10000 nM; IC50 [1, 5]: > 10000 nM; IC50 [2, 6]: > 10000 nM; IC50 [2, 7]: > 10000 nM"
CC[C@H](C)[C@H](NC(=O)[C@@H](NC(=O)[C@H](CC(=O)O)NC(=O)[C@H](C)NC(=O)[C@H](CO)NC(=O)[C@@H](N)CC(N)=O)[C@@H](C)O)C(=O)N[C@@H](CO)C(=O)N[C@@H](CO)C(=O)N[C@@H](Cc1ccc(O)cc1)C(=O)N[C@@H](Cc1ccccc1)C(=O)N[C@H](C(=O)NCC(=O)N[C@@H](CCCCN)C(=O)N[C@@H](CCSC)C(=O)N[C@@H](Cc1ccc(O)cc1)C(=O)N[C@@H](Cc1ccccc1)C(=O)N[C@@H](CC(N)=O)C(=O)N[C@@H](CC(C)C)C(=O)O)C(C)C [73-90],–,–,"IC50 [1, 4]: > 10000 nM; IC50 [1, 5]: > 10000 nM; IC50 [2, 6]: > 10000 nM; IC50 [2, 7]: > 10000 nM"
CC[C@H](C)[C@H](NC(=O)[C@H](CC(C)C)NC(=O)[C@H](CC(N)=O)NC(=O)[C@H](Cc1ccccc1)NC(=O)[C@H](Cc1ccc(O)cc1)NC(=O)[C@H](CCSC)NC(=O)[C@H](CCCCN)NC(=O)CNC(=O)[C@@H](NC(=O)[C@H](Cc1ccccc1)NC(=O)[C@H](Cc1ccc(O)cc1)NC(=O)[C@H](CO)NC(=O)[C@H](CO)NC(=O)[C@@H](NC(=O)[C@@H](N)[C@@H](C)O)[C@@H](C)CC)C(C)C)C(=O)N[C@@H](CC(=O)O)C(=O)N[C@H](C(=O)N[C@@H](CCCCN)C(=O)O)[C@@H](C)O [77-94] (H-TISSYFVGKMYFNLIDTK-OH; N-terminus and C-terminus assumed),–,–,"IC50 [1, 4]: 450 nM; IC50 [1, 5]: 450 nM; IC50 [2, 6]: 175 nM; IC50 [2, 7]: 175 nM"
"CC(C)C[C@H](NC(=O)[C@H](CC(=O)O)NC(=O)[C@H](Cc1ccc(O)cc1)NC(=O)[C@H](CCC(N)=O)NC(=O)[C@@H](NC(=O)[C@H](CC(=O)O)NC(=O)[C@H](C)NC(=O)[C@@H]1CCCN1C(=O)[C@H](C)NC(=O)CNC(=O)[C@@H]1CCCN1C(=O)CN)C(C)C)C(=O)N[C@@H](Cc1ccc(O)cc1)C(=O)N[C@@H](CC(C)C)C(=O)N[C@@H](CC(N)=O)C(=O)N[C@H](C(=O)N[C@@H](C)C(=O)N[C@@H](CC(N)=O)C(=O)N[C@@H](CCCNC(=N)N)C(=O)N[C@@H](CCCNC(=N)N)C(=O)O)C(C)C [IL3 127-146, reference compound]",–,–,pIC50 [1]: 7.52; pIC50 [2]: 7.52
CC(C)C[C@H](NC(=O)[C@H](CCCNC(=N)N)NC(=O)[C@H](C)NC(=O)[C@H](C)NC(=O)[C@H](CC(C)C)NC(=O)[C@@H]1CCCN1C(=O)[C@H](CCC(=O)O)NC(=O)[C@H](Cc1ccccc1)NC(=O)[C@H](CCC(N)=O)NC(=O)[C@@H](NC(=O)[C@H](C)NC(=O)[C@H](C)N)[C@@H](C)O)C(=O)O [UNK6-17] (H-AATQFEPLAARL-OH),–,–,"IC50 ([2]; IC50 (nM) 402, peptides derived from UNK1, tracer bUNK 1-17 10 nM, pH 5, 24 h): 6000 nM"
KYFAATQFEKLAA [UNK P12K],1.8,1.4,–
KYFAATQFEPAAA [UNK L13A],3.1,2.3,–
KYFAATQFEPDAA [UNK L13D],9.4,9,–
KYFAATQFEPEAA [UNK L13E],11,8,–
KYFAATQFEPFAA [UNK L13F],1.7,4,–
KYFAATQFEPKAA [UNK L13K],81,70,–
KYFAATQFEPLAK [UNK A15K],1.7,1.4,–
KYFAATQFEPLKA [UNK A13K],1.7,1.4,–
KYFAATQFEPNAA [UNK L13N],17,10,–
KYFAATQFEPRAA [UNK L13R],64,43,–

Compound,Loss of binding to DP*0401 (ratio of the IC50 values for the mutant peptide and for the UNK1 peptide) [1],Loss of binding to DP*0402 (ratio of the IC50 values for the mutant peptide and for the UNK1 peptide) [3],also measured
KYFAATQFEPVAA [UNK L13V],2.5,1.9,–
KYFAATQFEPYAA [UNK L13Y],2,15,–
KYFAATQFKPLAA [UNK E11K],1.3,0.7,–
KYFAATQKEPLAA [UNK F10K],420,350,–
KYFAATQLEPLAA [UNK F10L],7.2,6.7,–
KYFAATQNEPLAA [UNK F10N],2460,1809,–
KYFAATQTEPLAA [UNK F10T],1171,476,–
KYFAATQYEPLAA [UNK F10Y],2.4,3.4,–
KYFAAYQFEPLAA [UNK T8Y],4.1,2.4,–
KYFAKTQFEPLAA [UNK A7K],2,1.2,–
KYFKATQFEPLAA [UNK A6K],1.6,1,–
KYKAATQFEPLAA [UNK F5K],569,297,–
KYLAATQFEPLAA [UNK F5L],3.6,6,–
KYNAATQFEPLAA [UNK F5N],398,76,–
KYTAATQFEPLAA [UNK F5T],234,126,–
KYYAATQFEPLAA [UNK F5Y],3,3.9,–
